# In article PMC10300102, “In vivo inhibition of nuclear ACE2 translocation protects against SARS-CoV-2 replication and lung damage through epigenetic imprinting” (Nature Communications, 2023):
# Where a SMILES comes first, the peptide text is derived from it. The star is where a group is joined. Myristoyl = CCCCCCCCCCCCCC(=O)*
# System: importin-α ΔIBB protein / ACE2 FITC peptide (ACE2-IMPα complex)
# Assay: Fluorescence polarization competition assay
# Type: binding
# Conditions: Fig. 1b, c: EMSA, microscale thermophoresis and fluorescence polarization
# Method: Fluorescence polarization assays were performed using the CLARIOstar Plus plate reader (BMG Labtech, Ortenberg, Germany) with the fluorescein-Ahx-tagged ACE2 peptide sequence ^766[…]^779 manufactured by GeneScript Biotech (Piscataway, NJ), NACE2i peptide sequence MYR-[…]-OH manufactured by Mimitopes Pty Ltd (Melbourne, Australia), and recombinantly expressed importin-α ΔIBB protein. Each assay contained 50 nM ACE2 FITC, 10 μM importin-α ΔIBB protein, and two-fold serially-diluted NACE2i (starting concentration 400 μM) across 10 wells in a total volume of 200 μL. Fluorescence polarization readings were taken using 96-well black Fluotrac microplates (Greiner Bio-One, Kremsmünster, Austria). Assays were repeated in triplicate and contained a negative control (no inhibitor) and blank (no importin-α ΔIBB protein). Triplicate data were normalized and fitted to a single inhibition curve using GraphPad Prism (GraphPad Software, La Jolla, CA).
compound,measurement,value
CCCCCCCCCCCCCC(=O)N[C@H](C(=O)NCC(=O)N[C@H](C(=O)N[C@@H](CCCNC(=N)N)C(=O)N[C@@H](CC(=O)O)C(=O)N[C@@H](CCCNC(=N)N)C(=O)N[C@@H](CCCCN)C(=O)N[C@@H](CCCCN)C(=O)N[C@@H](CCCCN)C(=O)N[C@@H](CC(N)=O)C(=O)N[C@@H](CCCCN)C(=O)N[C@@H](C)C(=O)N[C@@H](CCCNC(=N)N)C(=O)N[C@@H](CO)C(=O)O)[C@@H](C)CC)[C@@H](C)O [NACE2i] (Myristoyl-TGIRDRKKKNKARS-OH),inhibition of the ACE2-IMPα complex in vitro,directly inhibiting the ACE2-IMPα complex
